Assay results reported in patent US20110065796A1 (SHIRE LLC, priority 2009, published 2011).

How the values were obtained:
[1] = Prodrug stability in freshly withdrawn porcine intestinal fluid; assay type: in vitro ADME; conditions: for Prodrug remaining at 3 h: porcine intestinal fluid pH 6.8, 37° C., in % (unit assumed)
Excerpt: Many of the peptidases in the intestinal lumen may not be present in the USP simulated intestinal fluid preparations previously described. […] The prodrugs evaluated were selected on the basis of adequate pharmacokinetics (see Example 8).

[2] = Prodrug stability in simulated intestinal fluid; conditions: 37° C., pH 6.8, HPLC
Procedure: (§1) The remaining concentrations of the prodrugs were then assayed by H PLC.

[3] = Prodrug stability in simulated gastric fluid; conditions: 37° C., pH 1.1, HPLC
Procedure: as §1

[4] = Comparative pharmacokinetic screening study in the monkey (relative Cmax of guanfacine); conditions: oral gavage, monkey screening study
Procedure: Blood samples were taken on 4 sampling occasions at various times up to 6 hours after administration and submitted to analysis for the parent drug and prodrug using a qualified LC-MS-MS assay.

Compound | Prodrug remaining at 3 h [1] | % prodrug remaining following incubation for 2 h in simulated intestinal fluid pH 6.8 [2] | % prodrug remaining following incubation for 1 h in simulated gastric fluid pH 1.1 [3] | prodrug levels in plasma (in words) [4] | stability in porcine intestinal fluid (in words) [1]
CNCC(=O)N[C@@H](CCC(=O)NC(=N)NC(=O)Cc1c(Cl)cccc1Cl)C(=O)O [Compound 7, Guanfacine ((S)-γ-Glutamate-Sarcocine) Amide] | 48.9 ± 0.8 | 66% | 79% |  | 
CN(CC(=O)O)C(=O)NC(=N)NC(=O)Cc1c(Cl)cccc1Cl [Compound 9, Guanfacine Sarcosine Urea] |  | 105% | 101% | high prodrug levels | 
CC(C)[C@@H](N)C(=O)NCCC(=O)NC(=N)NC(=O)Cc1c(Cl)cccc1Cl [Compound 11, Guanfacine (β-Alanine-(R)-Valine) Amide] | 91.3 ± 2.6 | 104% | 79% | detectable prodrug levels in plasma | high stability
CC(C)[C@H](N)C(=O)NCCOC(=O)NC(=N)NC(=O)Cc1c(Cl)cccc1Cl [Compound 26, Guanfacine (Ethanolamine-(S)-Valine) Carbamate] | 13.8 ± 0.6 | 91% | 97% |  | very unstable
O=C(O)CC[C@@H]1N=C(NC(=O)Cc2c(Cl)cccc2Cl)NC1=O [Compound 37, Guanfacine-(S)-Glutamic Cyclic Adduct] |  | 110% | 58% | high prodrug levels | 
CCC(C)[C@@H](N)C(=O)NCCCC(=O)NC(=N)NC(=O)Cc1c(Cl)cccc1Cl (stereo partly drawn) [Compound 50, Guanfacine (GABA-(R)-Isoleucine) Amide] |  | 81% | 85% |  | 
C[C@H]1N=C(NC(=O)Cc2c(Cl)cccc2Cl)NC1=O [Compound 51, Guanfacine-(R)-Alanine Cyclic Adduct] |  | 103% | 80% |  | 
N=C(NC(=O)Cc1c(Cl)cccc1Cl)NC(=O)c1ccc(N)cc1 [Compound 52, Guanfacine PABA Amide] | 87.77 ± 5.80 | 97% | 84% |  | high stability
N=C(NC(=O)Cc1c(Cl)cccc1Cl)NC(=O)Nc1ccc(C(=O)O)cc1 [Compound 53, Guanfacine PABA Urea] |  | 100% | 101% |  | 
CC(C)[C@@H](N)C(=O)N[C@@H](C(=O)NC(=N)NC(=O)Cc1c(Cl)cccc1Cl)C(C)C [Compound 54, Guanfacine ((R)-Valine-(R)-Valine) Amide] |  | 66% | 73% |  | 
CC(C)[C@@H](NC(=O)c1ccc(N)cc1)C(=O)NC(=N)NC(=O)Cc1c(Cl)cccc1Cl [Compound 55, Guanfacine ((R)-Valine-PABA) Amide] |  | 91% | 65% |  | 
CC(C)[C@H](N)C(=O)NCCCC(=O)NC(=N)NC(=O)Cc1c(Cl)cccc1Cl [Compound 56, Guanfacine (GABA-(S)-Valine) Amide] |  | 111% | 70% |  | 
N=C(NC(=O)CCCNC(=O)CC[C@H](N)C(=O)O)NC(=O)Cc1c(Cl)cccc1Cl [Compound 57, Guanfacine (GABA-(S)-γ-Glutamate) Amide] |  | 106% | 81% |  | 
N=C(NC(=O)Cc1c(Cl)cccc1Cl)NC(=O)OCCNC(=O)CC[C@H](N)C(=O)O [Compound 58, Guanfacine (Ethanolamine-(S)-γ-Glutamate) Carbamate] | 81.26 ± 4.57 | 99% | 96% |  | 
CC[C@H](C)[C@H](N)C(=O)NCCOC(=O)NC(=N)NC(=O)Cc1c(Cl)cccc1Cl [Compound 59, Guanfacine (Ethanolamine-(S)-Isoleucine) Carbamate] |  | 100% | 92% |  | 

More lines, now with the values ahead:

Prodrug remaining at 3 h [1] | % prodrug remaining following incubation for 2 h in simulated intestinal fluid pH 6.8 [2] | % prodrug remaining following incubation for 1 h in simulated gastric fluid pH 1.1 [3] | prodrug levels in plasma (in words) [4] | stability in porcine intestinal fluid (in words) [1] | Compound
 | 97% | 81% |  |  | N=C(NC(=O)CC[C@H](NC(=O)c1ccc(C(=O)O)cc1)C(=O)O)NC(=O)Cc1c(Cl)cccc1Cl [Compound 60, Guanfacine ((S)-γ-Glutamate-Terephthalic acid) Amide]
 | 93% | 88% |  |  | N=C(NC(=O)Cc1c(Cl)cccc1Cl)NC(=O)OC[C@H](NC(=O)CCN)C(=O)O [Compound 64, Guanfacine ((S)-Serine-β-Alanine) Carbamate]
 | 99% | 90% |  |  | N=C(NC(=O)Cc1c(Cl)cccc1Cl)NC(=O)OCC[C@H](N)C(=O)O [Compound 65, Guafacine (S)-Homoserine Carbamate]
 | 101% | 86% |  |  | CNCC(=O)N[C@@H](CCOC(=O)NC(=N)NC(=O)Cc1c(Cl)cccc1Cl)C(=O)O [Compound 66, Guanfacine ((S)-Homoserine-Sarcosine) Carbamate]
 | 97% | 99% |  |  | N=C(NC(=O)Cc1c(Cl)cccc1Cl)NC(=O)OCC[C@H](NC(=O)CCN)C(=O)O [Compound 67, Guanfacine ((S)- Homoserine-β-Alanine) Carbamate]
 | 75% | 86% |  |  | CC(C)(COC(=O)NC(=N)NC(=O)Cc1c(Cl)cccc1Cl)[C@@H](O)C(=O)NCCC(=O)O [Compound 68, Guanfacine Pantothenic acid Carbamate]
 | 96% | 85% |  |  | CC(C)(CO)[C@@H](O)C(=O)NCCCOC(=O)NC(=N)NC(=O)Cc1c(Cl)cccc1Cl [Compound 69, Guanfacine Panthenol Carbamate]
 | 93% | 64% |  |  | N=C(NC(=O)CC[C@H](NC(=O)c1ccc(N)cc1)C(=O)O)NC(=O)Cc1c(Cl)cccc1Cl [Compound 70, Guanfacine ((S)-γ-Glutamate-PABA) Amide]
 | 89% | 91% |  |  | CNCC(=O)NCCOC(=O)NC(=N)NC(=O)Cc1c(Cl)cccc1Cl [Compound 71, Guanfacine (Ethanolamine-Sarcosine) Carbamate]
